Experimental data published in paper PMC9525106, “Intestinal permeability of agaro-oligosaccharides: Transport across Caco-2 cell monolayers and pharmacokinetics in rats” (Frontiers in Nutrition, 2022).
Read-outs that look alike come from different tables or passages of the source.

Key:
peritoneal macrophages = system: peritoneal macrophages; set-up: method as in PMID 22791164; conditions: oral administration to mice, 3% AOSs containing water for 3 weeks; cited from earlier work
Caco-2 cell monolayers [1] = format: in vitro ADME, human
Description: The correlation between TEER and permeation rate was examined to confirm the occurrence of Abi and Ahe transport via the paracellular pathway by using the LY fluorescent stain for comparison. Thus, Abi, Ahe, and LY were added to the apical chamber with or without cytochalasin B. The basal chamber solution was collected, and the TEER was measured every 1 h for 3 h, thereby quantifying Abi, Ahe, and LY in the basal chamber. The TEER and quantified values are plotted as a scatter plot in Figure 6.

Caco-2 cell monolayers [2] = format: in vitro ADME, human; remark: listed apart in the source
Description: (§1) Caco-2 cells were purchased from DS Pharma (Osaka, Japan). The cells (passage 20–27) were cultured in E-MEM containing 10% (v/v) FBS, 1% (v/v) MEM-NEAA, and 1% (v/v) PS. The cells were incubated at 37°C in an atmosphere of 5% CO2 under 95% relative humidity. When the cells reached 80–90% confluence, they were passaged at a density of 1.0 × 10^5 cells onto a 12-well Transwell Permeable Support (0.4-μm pore polyester membrane insert, Corning, NY, USA). The cells were cultured for 19–21 days to obtain a monolayer. The culture medium (0.6 ml in the apical side and 1.5 ml in the basolateral side) was replaced every 1–2 days. The integrity of the Caco-2 cell monolayer was evaluated by measuring transepithelial electrical resistance (TEER) using a Millicell-ERS-2 system (Merck, Darmstadt, Germany). Only cell monolayers with final TEER values above 700 Ω · cm^2, indicative of high barrier integrity, were used for the transport assays.
(§2) Caco-2 cells monolayers were preincubated in HBSS for 30 min at 37°C. Subsequently, 0.6 ml of 0.5 mg/ml Abi and Ahe and 1.5 ml of HBSS to the apical and basolateral sides, respectively. After incubation for 0, 1, 2, and 3 h, the supernatant was collected from the basolateral side. To identify the transport mechanisms, Caco-2 cell monolayers were preincubated with sodium azide (1 mM), colchicine (1 mM), or cytochalasin B (5 μg/ml) dissolved in HBSS with 0.1% DMSO for 30 min, followed by the incubation of 0.5 mg/ml Abi and Ahe for 2 h. To remove salt, the collected supernatant was applied to the graphitized carbon solid-phase extraction (GC-SPE) using InertSep GC (200 mg/3 ml) (GL Sciences Inc., Tokyo, Japan), according to the method described by Ninonuevo et al. ([12]). The SPE cartridge was first equilibrated with 6 ml of 80% acetonitrile in 0.1% acetic acid (v/v), followed by 3 ml of DW. The basal solution was dissolved in DW to 3 ml and loaded onto the cartridge. The salts were removed by washing with 6 ml of DW, and Abi or Ahe was eluted with 3 ml of 20% acetonitrile. After ABEE derivatization, the collected solution was evaporated to dryness and subjected to LC-MS. The apparent permeability coefficients (Papp) were calculated ([13]) as Papp = (dQ/dt) × (1/AC0), where dQ/dt is the permeation rate (μg/s), A is the area of the monolayer of Caco-2 cells (cm^2), and C0 is the initial concentration of Abi or Ahe in the apical chamber (μg/ml).

[3] = rat, in vivo, po
Description: To prepare the standard curve samples of AOSs, the AOSs were labeled with ABEE using an ABEE labeling kit (J-Chemical, Tokyo, Japan) according to the method developed by Yasuno et al. ([11]). The reaction was performed according to the instructions provided by the manufacturer. Briefly, 40 μl of the ABEE reagent solution was added to 10 μl of the solution of AOSs and the mixture was vortexed and incubated at 80°C for 1 h. After cooling to 15–20°C, 200 μl of DW and an equal volume of chloroform were added, and the mixture was then vortexed and centrifuged for 1 min. The upper layer was filtered through a polytetrafluoroethylene membrane (4 mm diameter, 0.45-μm pore size; Membrane Solutions Limited, Plano, TX, USA) and subjected to LC-MS.
For the HPLC measurements, an LC-20AD pump (Shimadzu) fitted with a DGU-20A 5R degassing unit (Shimadzu) was used. The analytes were injected using a SIL-20AC autosampler (Shimadzu). In addition, a CTO-20AC column oven (Shimadzu) was used, and entire equipment was controlled using a CBM-20A unit (Shimadzu). The samples were separated on a Shim-pack VP-ODS (150 × 2.0 mm, 4.6 μm; Shimadzu) combined with a Shim-pack GVP-ODS guard column (2.0 mm i.d. × 5 mm, 4.6 μm; Shimadzu). The mobile phase consisted of acetic acid (0.1%) in water (A) and acetic acid (0.1%) in acetonitrile (B). The gradient conditions were as follows: 0–30 min, 9%−13% B; 30–45 min, 80% B; 45–60 min, 9% B. The flow rate was 0.2 ml/min. The column oven temperature was set at 60°C, and the autosampler temperature was 10°C.
The detection was performed using an LCMS-2020 (Shimadzu) ESI-MS device. The analytes were identified and quantified by selected ion monitoring in the positive-ion mode. The MS conditions were as follows: interface temperature, 350°C; desolvation line (DL) temperature, 250°C; heat block temperature, 200°C; nebulizer gas flow, 1.5 L/min; drying gas flow, 15 L/min; interface voltage, 4.5 kV; DL voltage, 0 kV.
Fifteen female Sprague–Dawley rats, aged 7 weeks, were purchased from Charles River Laboratories Japan (Kanagawa, Japan). The rats were acclimatized to standard laboratory conditions (20–25°C, 40%−70% humidity, and 12 h light/dark cycle) for 1 week.
After a fasting period of 12 h, 2 ml of phosphate-buffered saline (pH 7.4) containing 0%, 10%, or 50% AOSs was orally administered to five rats from each group (220–250 g body weight) using feeding gavages. The AOSs comprised 30.2, 29.1, and 31.6% of Abi, Ate, and Ahe, respectively. Blood (100 μl) was collected before and after 1, 2, 4, 8, and 24 h of oral administration from the tail vein using 10,000 U heparin-coated syringes (1 ml) with a 26G × 1/2 ” needle. The blood samples were centrifuged at 1,000 g for 10 min, and the supernatants were collected. Acetonitrile was added to the plasma samples at a final concentration of 60%. The samples were vigorously vortexed and centrifuged at 6,000 g for 5 min; the supernatants were collected and evaporated to dryness. Subsequently, the dried samples were dissolved in 10 μl of DW and subjected to ABEE derivatization before LC-MS analysis. The area under the curve (AUC) of plasma concentration was calculated using the trapezoid formula.

Caco-2 cell monolayers [4] = test: Transepithelial permeation route analysis with transport inhibitors in Caco-2 cell monolayers; conditions: for effect of sodium azide on transport rate: 1 mM sodium azide preincubated 30 min, then 2 h incubation; for effect of cytochalasin B on transepithelial permeability: Caco-2; for effect on TEER value of Caco-2 cell monolayers: inhibitor in apical chamber (sodium azide 1 mM, colchicine 1 mM, cytochalasin B 5 μg/ml), TEER after 2 h
Description: as §1, §2
The effects of various inhibitors on the transepithelial absorption through Caco-2 cell monolayers were examined to identify the transport routes of Abi and Ahe. We used 1 mM sodium azide and 1 mM colchicine as an electron-transport-chain inhibitor and a transcytosis inhibitor, respectively, to determine whether an energy-dependent pathway is involved. […] Next, we used cytochalasin B as a tight junction disruptor to investigate the involvement of the paracellular pathway in the transepithelial permeation of Abi and Ahe. Cytochalasin B increases the paracellular permeability by affecting the tight junction structure through the myosin light chain kinase activation ([14]).

[5] = set-up: method as in PMID 20378994; conditions: cited from earlier work

| Compound | Pearson correlation coefficient value between TEER and amount permeated (Caco-2 cell monolayers [1]) | AUC ([3]; 1 g/kg) | Cmax ([3]; 1 g/kg) | Tmax ([3]; 1 g/kg) | AUC ([3]; 5 g/kg) | Cmax ([3]; 5 g/kg) | Tmax ([3]; 5 g/kg) | effect on TEER value of Caco-2 cell monolayers (Caco-2 cell monolayers [4]) | further results |
| --- | --- | --- | --- | --- | --- | --- | --- | --- | --- |
| OC[C@H]1O[C@@H](O[C@H]2[C@H]3OC[C@@H]2OC(O)[C@H]3O)[C@H](O)[C@@H](O)[C@H]1O (mixture of isomers) [Abi, agarobiose] | −0.832 | 620 ± 180 ng·h/mL | 76.4 ± 36.7 ng/mL | 4 h | 2560 ± 810 ng·h/mL | 439.8 ± 182.6 ng/mL | 4 h |  | nitric oxide (NO) production on stimulated peritoneal macrophages (peritoneal macrophages): suppression; Papp (Caco-2 cell monolayers [2]): 0.41 ± 0.03 10^−6 cm/s; percentage permeated (Caco-2 cell monolayers [2]): 0.27 ± 0.02 %/h; effect of sodium azide on transport rate (Caco-2 cell monolayers [4]): did not have any significant effect; effect of cytochalasin B on transepithelial permeability (Caco-2 cell monolayers [4]): increased |
| OC[C@H]1O[C@@H](O[C@H]2[C@H]3OC[C@@H]2O[C@@H](O[C@H]2[C@@H](O)[C@@H](CO)O[C@@H](O[C@H]4[C@H]5OC[C@@H]4O[C@@H](O[C@H]4[C@@H](O)[C@@H](CO)O[C@@H](O[C@H]6[C@H]7OC[C@@H]6OC(O)[C@H]7O)[C@@H]4O)[C@H]5O)[C@@H]2O)[C@H]3O)[C@H](O)[C@@H](O)[C@H]1O (mixture of isomers) [Ahe, agarohexaose] | −0.814 | 290 ± 270 ng·h/mL | 42.1 ± 37.1 ng/mL | 4 h | 460 ± 250 ng·h/mL | 107.8 ± 55.0 ng/mL | 4 h |  | Papp (Caco-2 cell monolayers [2]): 0.21 ± 0.01 10^−6 cm/s; percentage permeated (Caco-2 cell monolayers [2]): 0.14 ± 0.01 %/h; effect of sodium azide on transport rate (Caco-2 cell monolayers [4]): did not have any significant effect; effect of cytochalasin B on transepithelial permeability (Caco-2 cell monolayers [4]): increased |
| OC[C@H]1O[C@@H](O[C@H]2[C@H]3OC[C@@H]2O[C@@H](O[C@H]2[C@@H](O)[C@@H](CO)O[C@@H](O[C@H]4[C@H]5OC[C@@H]4O[C@@H](O)[C@H]5O)[C@@H]2O)[C@H]3O)[C@H](O)[C@@H](O)[C@H]1O [Ate, agarotetraose] |  | 390 ± 170 ng·h/mL | 58.9 ± 37.6 ng/mL | 4 h | 1390 ± 450 ng·h/mL | 239.5 ± 98.2 ng/mL | 4 h |  | nitric oxide (NO) production on stimulated peritoneal macrophages (peritoneal macrophages): suppression |
| COc1cc2c(c(OC)c1OC)-c1ccc(OC)c(=O)cc1[C@@H](NC(C)=O)CC2 [colchicine, reference compound] |  |  |  |  |  |  |  | did not have any significant effect |  |
| C=C1[C@@H](C)[C@H]2[C@H](Cc3ccccc3)NC(=O)[C@]23OC(=O)/C=C/[C@H](O)CCC[C@@H](C)C/C=C/[C@H]3[C@@H]1O [cytochalasin B, reference compound] |  |  |  |  |  |  |  | significantly decreased |  |
| OC[C@H]1O[C@@H](O)[C@H](O)[C@@H](O[C@@H]2O[C@H]3CO[C@@H]([C@@H]2O)[C@@H]3O[C@@H]2O[C@H](CO)[C@H](O)[C@H](O[C@@H]3O[C@H]4CO[C@@H]([C@@H]3O)[C@@H]4O[C@@H]3O[C@H](CO)[C@H](O)[C@H](O[C@@H]4O[C@H]5CO[C@@H]([C@@H]4O)[C@@H]5O)[C@H]3O)[C@H]2O)[C@H]1O [neoagarohexaose] |  |  |  |  |  |  |  |  | anti-inflammatory activity [5]: no anti-inflammatory activity |
| [N-]=[N+]=[N-].[Na+] [sodium azide, reference compound] |  |  |  |  |  |  |  | did not have any significant effect |  |
| Lucifer yellow CH dilithium salt [LY, reference compound] | −0.779 |  |  |  |  |  |  |  |  |
